Source: BindingDB's records for doi:10.1016/j.bmcl.2007.01.064 (Vertex Pharmaceuticals, 2007)

Target: T1, Disintegrin and metalloproteinase domain-containing protein 17 [215-477,S266A,N452Q] (Homo sapiens, UniProt P78536, N452Q/S266A)
T1 construct: 215-477
Assay: TACE Inhibition Assay
Details: pH 7.5; 22 °C
Experimental: The compounds were tested for TACE inhibition using fluorescence resonance energy transfer (FRET) assay. TACE catalyzed cleavage of the substrate peptide liberates the fluoropore from the proximity of the adjacent quenching moiety, and an increase in fluorescence signal results.

T1 sequence (P78536 215-477 S266A/N452Q): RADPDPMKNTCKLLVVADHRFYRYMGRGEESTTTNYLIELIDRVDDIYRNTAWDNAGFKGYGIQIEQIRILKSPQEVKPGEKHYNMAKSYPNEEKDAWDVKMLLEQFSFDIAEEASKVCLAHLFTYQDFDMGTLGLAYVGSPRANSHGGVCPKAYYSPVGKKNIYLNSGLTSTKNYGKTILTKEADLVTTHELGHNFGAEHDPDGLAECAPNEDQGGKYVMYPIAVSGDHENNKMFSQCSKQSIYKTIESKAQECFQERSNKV

Ki: 56 nM
Compound: CC#CCOc1ccc(S(=O)(=O)N(C)CCS)cc1 [4-(but-2-yn-1-yloxy)-N-methyl-N-(2-sulfanylethyl)benzene-1-sulfonamide]
